SMILES strings stand for the structures. Where a name gives a salt, the structure may show the parent alone.

We go through 14 molecules from patent US11760775B2, “Steroids and protein-conjugates thereof” (Regeneron Pharmaceuticals, Inc., priority 2016, dated 2023).

For experiment [1], the target named is Glucocorticoid Receptor (GR) (Homo sapiens (Human), UniProt P04150). Briefly: LanthaScreen TR-FRET GR Competitive Binding Assay (cell free).
Experiment [2] has as its system GR activation in 293/PRLR/GRE-Luc cells (HEK293/9xUAS-Luc2P/pBind-GR/PRLR-HA high cells). In words: GR co-activator luciferase reporter cell based assay in 293/PRLR/GRE-Luc cells. Set-up: species or system human. To be noted: 72 hours of incubation; for Emax / EC50: Homo sapiens; for Emax: HEK293, read-out: Activation (fold activation relative to Budesonide) in HEK293/9xUAS-Luc2P/pBind-GR/PRLR-HA high cells; for EC50: HEK293, read-out: HEK293/9xUAS-Luc2P/pBind-GR/PRLR-HA high cells EC50.
Text: Bioassays described herein were used to assess the efficacy of free steroids and anti-PRLR-ncADCs. In one example, the bioassay assessed the activity of steroids, after internalization of a site-specific anti-PRLR-GC steroid ADC into cells, to bind to pBIND-GR and subsequent luciferase reporter activation. […] Then such stable cell line was further transfected with a chimeric receptor consisting of a GR ligand binding domain fused to the yeast Gal4 DNA binding domain (pBind-GR, Promega Cat #E1581), and a Gal4 upstream activator sequence (9×Gal4UAS-Luc2P) that drives luciferase gene expression.
(§1) For this assay, 20,000 cells were seeded in 96-well plates in media containing DMEM supplemented with 10% FBS and pencillin/streptomycin (complete media) and grown overnight at 37° C. in 5% CO2. […] Luciferase activity was determined by addition of OneGlo™ reagent (Promega, Cat #E6130) and relative light units (RLUs) were measured on a Victor luminometer (Perkin Elmer). The EC50 values were determined from a four-parameter logistic equation over a 10 point response curve using GraphPad Prism.
as §1, with “One-Glo™” for “OneGlo™”, “10-point” for “10 point”, “Prism. […] Minimal activation in this assay is defined as less than 10% of the maximal activation measured with the free payload.” for “Prism.”
(In general: In a reporter assay the amount or activity of a reporter protein is the signal.)

Chain of Glucocorticoid Receptor (GR) (P04150 524-758): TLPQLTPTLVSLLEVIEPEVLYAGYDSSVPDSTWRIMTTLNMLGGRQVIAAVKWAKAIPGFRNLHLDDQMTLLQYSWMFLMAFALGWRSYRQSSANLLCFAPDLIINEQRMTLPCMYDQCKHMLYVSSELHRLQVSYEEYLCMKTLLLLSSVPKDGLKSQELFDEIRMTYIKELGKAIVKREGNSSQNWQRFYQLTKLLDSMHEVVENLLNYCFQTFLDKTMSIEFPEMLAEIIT

Usually IC50 stands for the concentration needed to halve the response being measured. High values mean lower potency, low ones higher potency. Molecule `CCCC1O[C@@H]2C[C@H]3[C@@H]4CCC5=CC(=O)C=C[C@]5(C)[C@H]4[C@@H](O)C[C@]3(C)[C@]2(C(=O)COc2ccc(N)cc2)O1` (stereo partly drawn) [11-5 R/S, (1S,2S,4R,8S,9S,11S,12S,13R)-8-[2-(4-Aminophenoxy)acetyl]-11-hydroxy-9,13-dimethyl-6-propyl-5,7-dioxapentacyclo[10.8.00^2,90.0^4,80.0^13,18]icosa-14,17-dien-16-one] gave an IC50 in experiment [1] of 10 to 100 nM. For the same molecule, in experiment [2], the Emax is > 75% and the EC50 was < 10 nM.

In experiment [1], `CCC[C@H]1O[C@@H]2C[C@H]3[C@@H]4CCC5=CC(=O)C=C[C@]5(C)[C@H]4[C@@H](O)C[C@]3(C)[C@]2(C(=O)COc2ccc(N)cc2)O1` [11-5 S, (1S,2S,4R,8S,9S,11S,12S,13R)-8-[2-(4-Aminophenoxy)acetyl]-11-hydroxy-9,13-dimethyl-6-propyl-5,7-dioxapentacyclo[10.8.0.0^2,90.0^4,80.0^13,18]icosa-14,17-dien-16-one] had an IC50 of 10 to 100 nM. In experiment [2], the Emax was > 75% and the EC50 was < 10 nM.

Take `CCC[C@H]1O[C@@H]2C[C@H]3[C@@H]4CCC5=CC(=O)C=C[C@]5(C)[C@H]4[C@@H](O)C[C@]3(C)[C@]2(C(=O)COc2ccc(N)c(F)c2)O1` [11-6 S, (1S,2S,4R,6S,8S,9S,11S,12S,13R)-8-[2-(4-Amino-3-fluorophenoxy)acetyl]-11-hydroxyl-9,13-dimethyl-6-propyl-5,7-dioxapentacyclo[10.8.0.0^2,90.0^4,80.0^13,18]icosa-14,17-dien-16-one]: the IC50 in experiment [1] was 10 to 100 nM. Moreover, in experiment [2], the Emax was > 75% and the EC50 is < 10 nM.

Regarding `CCC[C@@H]1O[C@@H]2C[C@H]3[C@@H]4CCC5=CC(=O)C=C[C@]5(C)[C@H]4[C@@H](O)C[C@]3(C)[C@]2(C(=O)COc2ccc(N)cc2F)O1` [11-7 R, (1S,2S,4R,8S,9S,11S,12S,13R)-8-[2-(4-Amino-3-fluorophenoxy)acetyl]-11-hydroxyl-9,13-dimethyl-6-propyl-5,7-dioxapentacyclo[10.8.0.0^2,90.0^4,80.0^13,18]icosa-14,17-dien-16-one], in experiment [1], the IC50 was 10 to 100 nM. In addition, in experiment [2], the Emax is > 75% and the EC50 was in the range of 10 to 100 nM.

In experiment [1], `CCC[C@@H]1O[C@@H]2C[C@H]3[C@@H]4CCC5=CC(=O)C=C[C@]5(C)[C@H]4[C@@H](O)C[C@]3(C)[C@]2(C(=O)COc2ccc(NC)cc2)O1` [11-8 R, (1S,2S,4R,6R,8S,9S,11S,12S,13R)-11-Hydroxyl-9,13-dimethyl-8-{2-[4-(methylamino)phenoxy]acetyl}-6-propyl-5,7-dioxapentacyclo-[10.8.0.0^2,90.0^4,80.0^13,18]icosa-, 14,17-dien-16-one] gave an IC50 of 10 to 100 nM. Further, in experiment [2], the Emax is > 75% and the EC50 was < 10 nM.

`CCC[C@@H]1O[C@@H]2C[C@H]3[C@@H]4CCC5=CC(=O)C=C[C@]5(C)[C@H]4[C@@H](O)C[C@]3(C)[C@]2(C(=O)COc2ccc(F)cc2)O1` [11-10 R/S, (1S,2S,4R,6R,8S,9S,11S,12S,13R)-8-[2-(4-Fluorophenoxy)acetyl]-11-hydroxy-9,13-dimethyl-6-propyl-5,7-dioxapentacyclo[10.8.0.0^2,90.0^4,80.0^13,18]icosa-14,17-dien-16-one]: in experiment [1], the IC50 was < 10 nM. In experiment [2], the Emax was < 20% and the EC50 is > 100 nM.

With `CCC[C@@H]1O[C@@H]2C[C@H]3[C@@H]4CCC5=CC(=O)C=C[C@]5(C)[C@H]4[C@@H](O)C[C@]3(C)[C@]2(C(=O)COc2ccc(NC(C)=O)cc2)O1` [11-11 R/S, N-(4-{2-[(1S,2S,4R,6R,8S,9S,11S,12S,13R)-11-Hydroxy-9,13-dimethyl-16-oxo-6-propyl-5,7-dioxapentacyclo[10.8.0.0^2,90.0^4,80.0^13,18]icosa-14,17-dien-8-yl]-2-oxoethoxy}phenyl)acetamide], the IC50 in experiment [1] was < 10 nM. In addition, in experiment [2], the Emax is < 20% and the EC50 was > 100 nM.

On to `CCCC1O[C@@H]2C[C@H]3[C@@H]4C[C@H](F)C5=CC(=O)C=C[C@]5(C)[C@@]4(F)[C@@H](O)C[C@]3(C)[C@]2(C(=O)COc2ccc(N)cc2)O1` (stereo partly drawn) [11-12 R/S, (1S,2S,4R,8S,9S,11S,12R,13S,19S)-8-[2-(4-Aminophenoxy)acetyl]-12,19-difluoro-11-hydroxy-9,13-dimethyl-6-propyl-5,7-dioxapentacyclo[10.8.0.0^2,90.0^4,80.0^13,18]icosa-14,17-dien-16-one], for which, in experiment [1], the IC50 lay within 10 to 100 nM. For the same molecule, in experiment [2], the Emax is > 75% and the EC50 was < 10 nM.

Consider `CCCC1O[C@@H]2C[C@H]3[C@@H]4C[C@H](F)C5=CC(=O)C=C[C@]5(C)[C@@]4(F)[C@@H](O)C[C@]3(C)[C@]2(C(=O)COc2cccc(N)c2)O1` (stereo partly drawn) [11-13 R, (1S,2S,4R,6R,8S,9S,11S,12R,13S,19S)-8-[2-(3-Aminophenoxy)acetyl]-12,19-difluoro-11-hydroxy-9,13-dimethyl-6-propyl-5,7-dioxapentacyclo[10.8.0.0^2,90.0^4,80.0^13,18]icosa-14,17-dien-16-one], for which the IC50 in experiment [1] was < 10 nM. In experiment [2], the Emax was > 75% and the EC50 was < 10 nM.

On to `CCCC1O[C@@H]2C[C@H]3[C@@H]4C[C@H](F)C5=CC(=O)C=C[C@]5(C)[C@@]4(F)[C@@H](O)C[C@]3(C)[C@]2(C(=O)COc2ccc(N)c(F)c2)O1` (stereo partly drawn) [11-14 R/S, (1S,2S,4R,8S,9S,11S,12R,13S,19S)-8-[2-(4-Amino-3-fluorophenoxy)acetyl]-12,19-difluoro-11-hydroxy-9,13-dimethyl-6-propyl-5,7-dioxapentacyclo[10.8.0.0^2,9.0^4,80.0^13,18]icosa-14,17-dien-16-one], for which the IC50 in experiment [1] is < 10 nM. Moreover, in experiment [2], the Emax was > 75% and the EC50 is < 10 nM.

Turning to `CCCC1O[C@@H]2C[C@H]3[C@@H]4C[C@H](F)C5=CC(=O)C=C[C@]5(C)[C@@]4(F)[C@@H](O)C[C@]3(C)[C@]2(C(=O)COc2ccc(CN)cc2)O1` (stereo partly drawn) [11-15 R/S, (1S,2S,4R,8S,9S,11S,12R,13S,19S)-8-{2-[4-(Aminomethyl)phenoxy]acetyl}-12,19-difluoro-11-hydroxy-9,13-dimethyl-6-propyl-5,7-dioxapentacyclo[10.8.0.0^2,90.0^4,80.0^13,18]icosa-14,17-dien-16-one], the IC50 in experiment [1] was < 10 nM. Also, in experiment [2], the Emax fell in the range of 20 to 75% and the EC50 fell in the range of 10 to 100 nM.

As to `CCCC1O[C@@H]2C[C@H]3[C@@H]4C[C@H](F)C5=CC(=O)C=C[C@]5(C)[C@@]4(F)[C@@H](O)C[C@]3(C)[C@]2(C(=O)COc2cccc(N)n2)O1` (stereo partly drawn) [11-17 R/S, (1S,2S,4R,8S,9S,11S,12R,13S,19S)-8-{2-[(6-Aminopyridin-2-yl)oxy]acetyl}-12,19-difluoro-11-hydroxy-9,13-dimethyl-6-propyl-5,7-dioxapentacyclo[10.8.0.0^2,90.0^4,80.0^13,18]icosa-14,17-dien-16-one], the IC50 in experiment [1] was < 10 nM. In addition, in experiment [2], the Emax was > 75% and the EC50 lay in the range of 10 to 100 nM.

As to `CCCC1O[C@@H]2C[C@H]3[C@@H]4C[C@H](F)C5=CC(=O)C=C[C@]5(C)[C@@]4(F)[C@@H](O)C[C@]3(C)[C@]2(C(=O)CN)O1` (stereo partly drawn) [11-19 R/S, (1S,2S,4R,6R,8S,9S,11S,12R,13S,19S)-8-(2-Aminoacetyl)-12,19-difluoro-11-hydroxy-9,13-dimethyl-6-propyl-5,7-dioxapentacyclo[10.8.0.0^2,90.0^4,80.0^13,18]icosa-14,17-dien-16-one; trifluoroacetic acid salt], the IC50 in experiment [1] is < 10 nM. Moreover, in experiment [2], the Emax was > 75% and the EC50 is < 10 nM.

`CCCC1O[C@@H]2C[C@H]3[C@@H]4C[C@H](F)C5=CC(=O)C=C[C@]5(C)[C@@]4(F)[C@@H](O)C[C@]3(C)[C@]2(C(=O)CN(C)Cc2ccc(OC)cc2)O1` (stereo partly drawn) [11-20 R/S, (1S,2S,4R,8S,9S,11S,12R,13S,19S)-12,19-Difluoro-11-hydroxy-8-(2-{[(4-methoxyphenyl)methyl](methyl)amino}acetyl)-9,13-dimethyl-6-propyl-5,7-dioxapentacyclo[10.8.0.0^2,90.0^4,80.0^13,18]icosa-14,17-dien-16-one; trifluoroacetic acid]: the IC50 in experiment [1] is < 10 nM. Besides, in experiment [2], the “Activation (fold activation relative to Budesonide) in HEK293/9xUAS-Luc2P/pBind-GR/PRLR-HA high cells” value is reported as “no activation” and the EC50 is > 100 nM.
